ChEMBL document CHEMBL1136060, “A new class of type I protein geranylgeranyltransferase (GGTase I) inhibitor” (Bioorg Med Chem Lett, 2002)
Several values for one entry are separate records, joined by “and”; a condition that tells them apart may be missing. Identical values can stand only once.

Test system: Geranylgeranyl transferase type I (Candida albicans)
Test: Tested for the inhibition of Candida GGTase I in Candida albicans at concentration of 3 uM

CC(O)C(NC(=O)C1COc2ccccc2O1)C(=O)OCCCS (configuration not stated) and O=C(O)CCC(NC(=O)C1COc2ccccc2O1)C(=O)OCCCS (configuration not stated) cannot be ordered by inhibition: under 10% for the first, under 10% for the second.

First: O=C(OCCCS)C(Cc1c[nH]c2ccccc12)NC(=O)C1COc2ccccc2O1 (configuration not stated)
Second: O=C(OCCCS)C(Cc1ccccc1)NC(=O)C1COc2ccccc2O1 (configuration not stated)
The inhibition of the first is higher: 72% for the first, 55% for the second.

O=C(NC(CC1CCCCC1)C(=O)OCCCS)C1Cc2ccccc2C1 (configuration not stated) and O=C(OCCCS)C(CC1CCCCC1)NC(=O)C1COc2ccccc2O1 (configuration not stated) cannot be ordered by inhibition: under 10% for the first, under 10% for the second.

Going from O=C(OCCCS)C(Cc1ccc2ccccc2c1)NC(=O)C1COc2ccccc2O1 (configuration not stated) to O=C(NC(C(=O)OCCCS)c1cccc2ccccc12)C1COc2ccccc2O1 (configuration not stated), the inhibition rises from 25% to 89%.

Going from NC(=O)[C@@H](Cc1c[nH]cn1)NC(=O)[C@@H](Cc1cccc2ccccc12)NC(=O)C1Cc2ccccc2C1 to NC(=O)[C@@H](Cc1c[nH]cn1)NC(=O)[C@@H](Cc1cccc2ccccc12)NC(=O)C1c2ccccc2Oc2ccccc21, the inhibition rises from 48% to 97%.

O=C(CNC(=O)C1COc2ccccc2O1)OCCCS (configuration not stated) and O=C(CNC(=O)C1Cc2ccccc2C1)OCCCS cannot be ordered by inhibition: under 10% for the first, under 10% for the second.

Compared with O=C(NC(Cc1ccccc1)C(=O)OCCCS)C1Cc2ccccc2C1 (configuration not stated), O=C(NC(Cc1ccc2ccccc2c1)C(=O)OCCCS)C1Cc2ccccc2C1 (configuration not stated) is lower in inhibition: 63% for the first, 36% for the second.

O=C(O)CCC(NC(=O)C1Cc2ccccc2C1)C(=O)OCCCS (configuration not stated) and CC(O)C(NC(=O)C1Cc2ccccc2C1)C(=O)OCCCS (configuration not stated) cannot be ordered by inhibition: under 10% for the first, under 10% for the second.

First: O=C(NC(C(=O)OCCCS)c1cccc2ccccc12)C1Cc2ccccc2C1 (configuration not stated)
Second: O=C(NC(Cc1c[nH]c2ccccc12)C(=O)OCCCS)C1Cc2ccccc2C1 (configuration not stated)
The inhibition of the first is higher: 90% for the first, 72% for the second.

NC(=O)[C@@H](Cc1c[nH]cn1)NC(=O)[C@@H](Cc1cccc2ccccc12)NC(=O)C1c2ccccc2-c2ccccc21 was tested, and the inhibition was 71% and 96%.

Target: Protein farnesyltransferase (Homo sapiens, UniProt P49354+P49356)
Test: Inhibition of human farnesyl transferase
Type: protein-complex assay

O=C(OC(CS)C(O)CS)c1csc(C2COc3ccccc3O2)n1 (configuration not stated) gave an IC50 of over 1000 µM.

Target: Geranylgeranyl transferase type I (Candida albicans)
Test: Tested for the inhibition of Candida GGTase I in Candida albicans

Compared with O=C(N[C@H](Cc1cccc2ccccc12)C(=O)NCCc1cnc[nH]1)C1Cc2ccccc2C1, O=C(N[C@H](Cc1cccc2ccccc12)C(=O)OCCCS)C1Cc2ccccc2C1 is 48-fold lower in IC50: 0.35 µM for the first, 0.0073 µM for the second. The second is the more potent here.

Going from O=C(OCC(O)CS)c1csc(C2COc3ccccc3O2)n1 (configuration not stated) to O=C(NCCCS)c1csc(C2COc3ccccc3O2)n1 (configuration not stated), the IC50 rises from 0.031 µM to 0.78 µM (25-fold).

O=C(N[C@H](Cc1ccc(Cl)c(Cl)c1)C(=O)NCCc1c[nH]cn1)C1c2ccccc2Oc2ccccc21 was tested, and the IC50 was 0.01 µM.

Target: Geranylgeranyl transferase type I (Candida albicans)
Test: Inhibition of Candida geranylgeranyl transferase I […]

Compared with O=C(OCCS)c1csc(C2COc3ccccc3O2)n1 (configuration not stated), O=C(OCCCS)c1csc(C2COc3ccccc3O2)n1 (configuration not stated) is 5.4-fold lower in IC50: 1.3 µM for the first, 0.24 µM for the second. The second is the more potent here.

Molecule O=C(OC(CS)C(O)CS)c1csc(C2COc3ccccc3O2)n1 (configuration not stated) has an IC50 of 0.017 µM.

Test system: Candida albicans
Test: Antifungal activity against Candida albicans
Type: functional

O=C(OC(CS)C(O)CS)c1csc(C2COc3ccccc3O2)n1 (configuration not stated) showed an MIC of over 120 µg/mL.

Target: T1, Geranylgeranyl transferase type I (Homo sapiens, UniProt P49354+P53609)
Test: Tested for the selectivity against human geranylgeranyl transferase I
Type: protein-complex assay

With O=C(N[C@H](Cc1ccc(Cl)c(Cl)c1)C(=O)NCCc1c[nH]cn1)C1c2ccccc2Oc2ccccc21 the Selectivity was over 1000.

Target: Geranylgeranyl transferase type I (Candida albicans)
Test: Inhibition of Candida geranylgeranyl transferase I

With O=C(OC(CS)C(O)CS)c1csc(C2COc3ccccc3O2)n1 (configuration not stated) the IC50 was 0.017 µM.

Target: T1, Geranylgeranyl transferase type I
Test: Inhibition of human geranylgeranyl transferase I
Type: protein-complex assay

O=C(OC(CS)C(O)CS)c1csc(C2COc3ccccc3O2)n1 (configuration not stated) gave an IC50 of 40 µM.
